Data: ChEMBL document CHEMBL1201861, “Genomics of Drug Sensitity in Cancer screening data, Wellcome Trust Sanger Institute”

Legend:
Experiment in all cases: cells
[1] = system: HT-3; assay type: functional, cell-based, Homo sapiens; settings: Homo sapiens, HT-3;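 also: growth inhibition measured with a cell viability readout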
Description: SANGER: Inhibition of human HT-3 cell growth in a cell viability assay.

[2] = system: NEC8; assay type: functional, cell-based, Homo sapiens; settings: Homo sapiens, NEC8;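 also: growth inhibition of human NEC8 cells, read out by a cell viability assay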
Description: SANGER: Inhibition of human NEC8 cell growth in a cell viability assay.

[3] = system: GCIY; assay type: functional, cell-based, Homo sapiens; settings: Homo sapiens, GCIY;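 also: growth inhibition of the human GCIY cell line, read out by a cell viability assay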
Description: SANGER: Inhibition of human GCIY cell growth in a cell viability assay.

[4] = system: CP66-MEL; assay type: functional, cell-based, Homo sapiens; settings: Homo sapiens, CP66-MEL;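 also: growth inhibition of CP66-MEL cells determined in a cell viability assay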
Description: SANGER: Inhibition of human CP66-MEL cell growth in a cell viability assay.

[5] = system: C-33-A; assay type: functional, cell-based, Homo sapiens; settings: Homo sapiens, C-33-A;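 also: cell viability assay measuring growth inhibition of C-33-A cells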
Description: SANGER: Inhibition of human C-33-A cell growth in a cell viability assay.

[6] = system: SK-OV-3; assay type: functional, cell-based, Homo sapiens; settings: Homo sapiens, SK-OV-3;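 also: growth inhibition of SK-OV-3 human cells, read out with a cell viability assay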
Description: SANGER: Inhibition of human SK-OV-3 cell growth in a cell viability assay.

[7] = system: CAL-72; assay type: functional, cell-based, Homo sapiens; settings: Homo sapiens, CAL-72;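 also: cell viability assay measuring inhibition of proliferation in the CAL-72 cell line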
Description: SANGER: Inhibition of human CAL-72 cell growth in a cell viability assay.

[8] = system: UACC-62; assay type: functional, cell-based, Homo sapiens; settings: Homo sapiens, UACC-62;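 also: growth inhibition of human UACC-62 cells, read out by a cell viability assay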
Description: SANGER: Inhibition of human UACC-62 cell growth in a cell viability assay.

[9] = system: NCI-H596; assay type: functional, cell-based, Homo sapiens; settings: Homo sapiens, NCI-H596;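 also: growth inhibition of NCI-H596 cells, read out with a cell viability assay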
Description: SANGER: Inhibition of human NCI-H596 cell growth in a cell viability assay.

[10] = system: MV4-11; assay type: functional, cell-based, MV-4-11; settings: Homo sapiens;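 also: cell viability readout measuring growth inhibition of human MV-4-11 cells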
Description: SANGER: Inhibition of human MV-4-11 cell growth in a cell viability assay.

[11] = system: MDA-MB-157; assay type: functional, cell-based, Homo sapiens; settings: Homo sapiens, MDA-MB-157
Description: SANGER: Inhibition of human MDA-MB-157 cell growth in a cell viability assay.

[12] = system: BFTC-905; assay type: functional, cell-based, Homo sapiens; settings: Homo sapiens, BFTC-905
Description: SANGER: Inhibition of human BFTC-905 cell growth in a cell viability assay.

[13] = system: U-251; assay type: functional, cell-based, Homo sapiens; settings: Homo sapiens, U-251;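 also: growth inhibition of human U-251 cells, read out through a cell viability assay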
Description: SANGER: Inhibition of human U251 cell growth in a cell viability assay.

[14] = system: BT-20; assay type: functional, cell-based, Homo sapiens; settings: Homo sapiens, BT-20;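 also: cell viability assay measuring suppression of growth in human BT-20 cells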
Description: SANGER: Inhibition of human BT-20 cell growth in a cell viability assay.

[15] = system: OE19; assay type: functional, cell-based, Homo sapiens; settings: Homo sapiens, OE19;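 also: growth inhibition of OE19 cells, measured through a cell viability read-out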
Description: SANGER: Inhibition of human OE19 cell growth in a cell viability assay.

[16] = system: HTC-C3; assay type: functional, cell-based, Homo sapiens; settings: Homo sapiens, HTC-C3;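 also: inhibition of cell growth, read out with a cell viability assay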
Description: SANGER: Inhibition of human HTC-C3 cell growth in a cell viability assay.

[17] = system: LU-139; assay type: functional, cell-based; settings: Homo sapiens
Description: SANGER: Inhibition of human LU-139 cell growth in a cell viability assay.

[18] = system: T98G; assay type: functional, cell-based, Homo sapiens; settings: Homo sapiens, T98G;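 also: growth inhibition of T98G cells, read out by a cell viability assay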
Description: SANGER: Inhibition of human T98G cell growth in a cell viability assay.

[19] = system: SBC-1; assay type: functional, cell-based; settings: Homo sapiens;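 also: cell viability assay measuring growth inhibition of the SBC-1 cell line, IC50 being the concentration that halves growth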
Description: SANGER: Inhibition of human SBC-1 cell growth in a cell viability assay.

[20] = system: HT-1376; assay type: functional, cell-based, Homo sapiens; settings: Homo sapiens, HT-1376
Description: SANGER: Inhibition of human HT-1376 cell growth in a cell viability assay.

[21] = system: ETK-1; assay type: functional, cell-based, Homo sapiens; settings: Homo sapiens, ETK-1;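 also: growth inhibition of human ETK-1 cells, read out with a cell viability assay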
Description: SANGER: Inhibition of human ETK-1 cell growth in a cell viability assay.

[22] = system: CAL-85-1; assay type: functional, cell-based; settings: Homo sapiens;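 also: growth inhibition of human CAL-85-1 cells, read out with a cell viability assay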
Description: SANGER: Inhibition of human CAL-85-1 cell growth in a cell viability assay.

[23] = system: SW626; assay type: functional, cell-based, Homo sapiens; settings: Homo sapiens, SW626;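 also: growth inhibition of SW626 cells, measured with a cell viability assay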
Description: SANGER: Inhibition of human SW626 cell growth in a cell viability assay.

[24] = system: HSC-3; assay type: functional, cell-based, Homo sapiens; settings: Homo sapiens, HSC-3
Description: SANGER: Inhibition of human HSC-3 cell growth in a cell viability assay.

[25] = system: NB69; assay type: functional, cell-based, Homo sapiens; settings: Homo sapiens, NB69;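 also: growth inhibition of NB69 cells, determined by a cell viability assay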
Description: SANGER: Inhibition of human NB69 cell growth in a cell viability assay.

[26] = system: KMOE-2; assay type: functional, cell-based; settings: Homo sapiens;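 also: growth inhibition of human KMOE-2 cells, read out with a cell viability assay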
Description: SANGER: Inhibition of human KMOE-2 cell growth in a cell viability assay.

[27] = system: MDA-MB-453; assay type: functional, cell-based, Homo sapiens; settings: Homo sapiens, MDA-MB-453
Description: SANGER: Inhibition of human MDA-MB-453 cell growth in a cell viability assay.

[28] = system: A3-KAW; assay type: functional, cell-based; settings: Homo sapiens;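 also: growth inhibition of human A3-KAW cells, read out with a cell viability assay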
Description: SANGER: Inhibition of human A3-KAW cell growth in a cell viability assay.

[29] = system: SW1463; assay type: functional, cell-based, Homo sapiens; settings: Homo sapiens, SW1463;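 also: growth inhibition of SW1463 cells, determined with a cell viability assay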
Description: SANGER: Inhibition of human SW1463 cell growth in a cell viability assay.

[30] = system: D-336MG; assay type: functional, cell-based, Homo sapiens; settings: Homo sapiens, D-336MG
Description: SANGER: Inhibition of human D-336MG cell growth in a cell viability assay.

[31] = system: ALL-PO; assay type: functional, cell-based; settings: Homo sapiens;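 also: growth inhibition of ALL-PO cells, read out by a cell viability assay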
Description: SANGER: Inhibition of human ALL-PO cell growth in a cell viability assay.

[32] = system: MKN-1; assay type: functional, cell-based, Homo sapiens; settings: Homo sapiens, MKN-1;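 also: growth inhibition of human MKN1 cells, read out by a cell viability measurement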
Description: SANGER: Inhibition of human MKN1 cell growth in a cell viability assay.

[33] = system: EW-3; assay type: functional, cell-based; settings: Homo sapiens;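 also: cell viability assay read-out, IC50 reflects inhibition of growth of the EW-3 cells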
Description: SANGER: Inhibition of human EW-3 cell growth in a cell viability assay.

[34] = system: DU-145; assay type: functional, cell-based, Homo sapiens; settings: Homo sapiens, DU-145
Description: SANGER: Inhibition of human DU-145 cell growth in a cell viability assay.

[35] = system: BE-13; assay type: functional, cell-based; settings: Homo sapiens;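 also: growth inhibition of human BE-13 cells, measured with a cell viability assay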
Description: SANGER: Inhibition of human BE-13 cell growth in a cell viability assay.

[36] = system: EFO-27; assay type: functional, cell-based, Homo sapiens; settings: Homo sapiens, EFO-27;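 also: growth inhibition of EFO-27 cells, read out with a cell viability assay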
Description: SANGER: Inhibition of human EFO-27 cell growth in a cell viability assay.

[37] = system: NCI-H441; assay type: functional, cell-based; settings: Homo sapiens;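 also: growth inhibition of NCI-H441 cells, read out with a cell viability assay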
Description: SANGER: Inhibition of human NCI-H441 cell growth in a cell viability assay.

[38] = system: NCI-H1581; assay type: functional, cell-based, Homo sapiens; settings: Homo sapiens, NCI-H1581;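 also: cell growth inhibition read out by a viability assay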
Description: SANGER: Inhibition of human NCI-H1581 cell growth in a cell viability assay.

[39] = system: K562; assay type: functional, cell-based; settings: Homo sapiens
Description: SANGER: Inhibition of human K-562 cell growth in a cell viability assay.

[40] = system: PSN1; assay type: functional, cell-based, Homo sapiens; settings: Homo sapiens, PSN1;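 also: suppression of growth of human PSN1 cells, read out by a cell viability assay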
Description: SANGER: Inhibition of human PSN1 cell growth in a cell viability assay.

[41] = system: SCC-15; assay type: functional, cell-based, Homo sapiens; settings: Homo sapiens, SCC-15;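 also: growth inhibition of SCC-15 cells, read out with a cell viability assay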
Description: SANGER: Inhibition of human SCC-15 cell growth in a cell viability assay.

[42] = system: PC-3; assay type: functional, cell-based, Homo sapiens; settings: Homo sapiens, PC-3;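 also: cell viability assay measuring growth inhibition of PC-3 cells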
Description: SANGER: Inhibition of human PC-3 cell growth in a cell viability assay.

[43] = system: LB831-BLC; assay type: functional, cell-based, Homo sapiens; settings: Homo sapiens, LB831-BLC;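 also: growth inhibition of LB831-BLC cells, read out with a cell viability assay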
Description: SANGER: Inhibition of human LB831-BLC cell growth in a cell viability assay.

[44] = system: MDA-MB-231; assay type: functional, cell-based, Homo sapiens; settings: Homo sapiens, MDA-MB-231
Description: SANGER: Inhibition of human MDA-MB-231 cell growth in a cell viability assay.

[45] = system: NTERA-2-cl-D1; assay type: functional, cell-based, Homo sapiens; settings: Homo sapiens, NTERA-2-cl-D1;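 also: inhibition of cell growth, measured with a cell viability assay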
Description: SANGER: Inhibition of human NTERA-S-cl-D1 cell growth in a cell viability assay.

[46] = system: NCI-H1838; assay type: functional, cell-based, Homo sapiens; settings: Homo sapiens, NCI-H1838;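 also: growth inhibition of NCI-H1838 cells, determined with a cell viability readout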
Description: SANGER: Inhibition of human NCI-H1838 cell growth in a cell viability assay.

[47] = system: Hs-578T; assay type: functional, cell-based, Homo sapiens; settings: Homo sapiens, Hs-578T
Description: SANGER: Inhibition of human Hs-578-T cell growth in a cell viability assay.

[48] = system: HCC1395; assay type: functional, cell-based, Homo sapiens; settings: Homo sapiens, HCC1395;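 also: growth inhibition of HCC1395 cells, read out by a cell viability assay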
Description: SANGER: Inhibition of human HCC1395 cell growth in a cell viability assay.

[49] = system: SCC-9; assay type: functional, cell-based, Homo sapiens; settings: Homo sapiens, SCC-9;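 also: Read-out is a cell viability assay, with values giving inhibition of cell growth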
Description: SANGER: Inhibition of human SCC-9 cell growth in a cell viability assay.

[50] = system: Detroit 562; assay type: functional, cell-based, Homo sapiens; settings: Homo sapiens, Detroit 562;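 also: growth inhibition of human Detroit 562 cells, read out by a cell viability assay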
Description: SANGER: Inhibition of human Detroit562 cell growth in a cell viability assay.

O=C(NOCC1CC1)c1ccc(F)c(F)c1Nc1ccc(I)cc1Cl [CI-1040]
IC50 [1]: > 10000 nM | IC50 [2]: > 10000 nM | IC50 [3]: > 10 µM | IC50 [4]: 488 nM | IC50 [5]: > 10000 nM | IC50 [6]: > 10 µM | IC50 [7]: > 10 µM | IC50 [8]: > 10000 nM | IC50 [9]: > 10 µM | IC50 [10]: 6.23 µM | IC50 [11]: > 10000 nM | IC50 [12]: 2830 nM | IC50 [13]: > 10000 nM | IC50 [14]: > 10 µM | IC50 [15]: > 10 µM | IC50 [16]: 465 nM | IC50 [17]: > 10 µM | IC50 [18]: 9 µM | IC50 [19]: 8.87 µM | IC50 [20]: > 10000 nM | IC50 [21]: > 10 µM | IC50 [22]: > 10 µM | IC50 [23]: 4.04 µM | IC50 [24]: 3230 nM | IC50 [25]: 1780 nM | IC50 [26]: 198 nM | IC50 [27]: > 10 µM | IC50 [28]: > 10000 nM | IC50 [29]: 1340 nM | IC50 [30]: > 10000 nM | IC50 [31]: 4360 nM | IC50 [32]: > 10000 nM | IC50 [33]: > 10000 nM | IC50 [34]: > 10 µM | IC50 [35]: 7.34 µM | IC50 [36]: 4.79 µM | IC50 [37]: > 10 µM | IC50 [38]: 8.26 µM | IC50 [39]: 8.84 µM | IC50 [40]: 962 nM | IC50 [41]: > 10000 nM | IC50 [42]: > 10000 nM | IC50 [43]: > 10 µM | IC50 [44]: 4.29 µM | IC50 [45]: > 10000 nM | IC50 [46]: > 10 µM | IC50 [47]: 5.54 µM | IC50 [48]: > 10 µM | IC50 [49]: > 10 µM | IC50 [50]: > 10 µM

Nc1ccn([C@@H]2O[C@H](CO)[C@@H](O)[C@@H]2O)c(=O)n1 [CYTARABINE]
IC50 [1]: 1380 nM | IC50 [2]: 134 nM | IC50 [3]: > 2 µM | IC50 [4]: > 2000 nM | IC50 [5]: 551 nM | IC50 [6]: > 2 µM | IC50 [7]: > 2 µM | IC50 [8]: 666 nM | IC50 [9]: > 2 µM | IC50 [10]: 1.85 µM | IC50 [11]: 1390 nM | IC50 [12]: 108 nM | IC50 [13]: 1130 nM | IC50 [14]: > 2 µM | IC50 [15]: > 2 µM | IC50 [16]: 459 nM | IC50 [17]: > 2 µM | IC50 [18]: 1.72 µM | IC50 [19]: > 2 µM | IC50 [20]: 1680 nM | IC50 [21]: > 2 µM | IC50 [22]: > 2 µM | IC50 [23]: > 2 µM | IC50 [24]: 400 nM | IC50 [25]: 79.5 nM | IC50 [26]: 944 nM | IC50 [27]: > 2 µM | IC50 [28]: 844 nM | IC50 [29]: > 2000 nM | IC50 [30]: 805 nM | IC50 [31]: 287 nM | IC50 [32]: 1740 nM | IC50 [33]: 830 nM | IC50 [34]: > 2 µM | IC50 [35]: 0.825 µM | IC50 [36]: 1.94 µM | IC50 [37]: > 2 µM | IC50 [38]: 1.77 µM | IC50 [39]: > 2 µM | IC50 [40]: 193 nM | IC50 [41]: 1080 nM | IC50 [42]: 1280 nM | IC50 [43]: > 2 µM | IC50 [44]: > 2 µM | IC50 [45]: 159 nM | IC50 [46]: > 2 µM | IC50 [47]: 0.839 µM | IC50 [48]: > 2 µM | IC50 [49]: > 2 µM | IC50 [50]: > 2 µM
